# According to ChEMBL document CHEMBL1129925, “Synthesis and antiviral evaluation of 4-hydroxymethyl-2, 3-dideoxy-3-thianucleosides and their cyclic monophosphates” (Bioorg Med Chem Lett, 1997):
# Calls of active or inactive are those of the source. No cut-off for these calls is given here.
# Key:
# CCRF-CEM [1] = experiment: Antiviral activity in CEM cells expressed as CC50; format: functional; details: Homo sapiens
# MT4 [2] = experiment: Antiviral activity in MT-4 cells expressed as IC50; format: functional, cell-based, Homo sapiens
# [3] = Antiviral activity in PBM cells expressed as IC50; format: functional, cell-based, Homo sapiens
# CEM-SS = experiment: Tested for anti-HIV activity in CEM-SS cell line; Inactive; format: functional, cell-based; details: Homo sapiens
# [4] = Antiviral activity in PBM cells expressed as CC50; format: functional; details: Homo sapiens, PBMC
# CD-4+ (A 3.01) [5] = experiment: Antiviral activity in CD-4+ (A 3.01) cell line expressed as CC50; format: functional
# CD-4+ (A 3.01) [6] = experiment: Antiviral activity in CD-4+ (A 3.01) cell line expressed as IC50; format: functional, cell-based
# MT4 [7] = experiment: Antiviral activity in MT-4 cells expressed as CC50; format: functional; details: Homo sapiens
# CCRF-CEM [8] = experiment: Cytotoxicity against CEM cells; format: functional; details: Homo sapiens
# MT4 [9] = experiment: Cytotoxicity against MT-4 cells; format: functional; details: Homo sapiens
# [10] = Antiviral activity in PBM cells; format: functional, cell-based; details: Homo sapiens, PBMC
# [11] = Cytotoxicity against PBM cells; format: functional; details: Homo sapiens, PBMC
# MT4 [12] = experiment: Antiviral activity in MT-4 cells; format: functional, cell-based; details: Homo sapiens
# H9 = experiment: Antiviral activity in H9 cells expressed as IC50; format: functional, cell-based; details: Homo sapiens
smiles,measurement,setting,value
Nc1ccn([C@@H]2CS[C@H](CO)O2)c(=O)n1 (stereo in doubt; (-)) [LAMIVUDINE],CC50,CCRF-CEM [1],363000 nM
same,IC50,MT4 [2]; mt4,610 nM
same,IC50,[3],2 nM
Nc1ccn(C2CSC(CO)(CO)O2)c(=O)n1 (centres undefined),Anti-HIV activity,CEM-SS,inactive
Nc1ccn([C@@H]2CS[C@H](CO)O2)c(=O)n1 (stereo in doubt; (+)) [LAMIVUDINE],IC50,[3],210 nM
same,CC50,[4],> 100000 nM
Cc1cn([C@H]2C[C@H](O)[C@](CO)(N=[N+]=[N-])O2)c(=O)[nH]c1=O,CC50,CD-4+ (A 3.01) [5],8000 nM
same,IC50,CD-4+ (A 3.01) [6],10 nM
Nc1ccn([C@@H]2CS[C@H](CO)O2)c(=O)n1 (racemic) [LAMIVUDINE],IC50,"MT4 [2]; Homo sapiens, MT4",370 nM
same,CC50,MT4 [7],405000 nM
"Nc1ccn([C@@H]2CS[C@H](CO)O2)c(=O)n1 (single isomer, unassigned) [LAMIVUDINE]",CC50,CCRF-CEM [8],363000 nM
same,CC50,MT4 [9],407000 nM
same,IC50,[10],210 nM
same,CC50,[11],> 100000 nM
same,IC50,MT4 [12],370 nM
Nc1ccn(C2CC(CO)C(CO)O2)c(=O)n1 (centres undefined),IC50,H9,10 nM
Nc1ccn(C2CSC3(COP(=O)(O)OC3)O2)c(=O)n1 (centres undefined),Anti-HIV activity,CEM-SS,inactive
Cc1cn(C2CSC3(COP(=O)(O)OC3)O2)c(=O)[nH]c1=O (centres undefined),Anti-HIV activity,CEM-SS,inactive
Cc1cn(C2CSC(CO)(CO)O2)c(=O)[nH]c1=O (centres undefined),Anti-HIV activity,CEM-SS,inactive
